# Tests used:
# [1] = molecular target: T1, UT-B (Homo sapiens, UniProt Q13336); test: RBC lysis assay, human RBCs loaded with acetamide; format: cell-based; conditions: 0.7 mM phloretin; control approximately 1.6 M
# T1 construct: the indicator cells are red blood cells that endogenously express the UT-B urea transporter; endogenous in cells; host or cells: human red blood cells (whole venous blood, single donor)
# T1 sequence (Q13336 1-389): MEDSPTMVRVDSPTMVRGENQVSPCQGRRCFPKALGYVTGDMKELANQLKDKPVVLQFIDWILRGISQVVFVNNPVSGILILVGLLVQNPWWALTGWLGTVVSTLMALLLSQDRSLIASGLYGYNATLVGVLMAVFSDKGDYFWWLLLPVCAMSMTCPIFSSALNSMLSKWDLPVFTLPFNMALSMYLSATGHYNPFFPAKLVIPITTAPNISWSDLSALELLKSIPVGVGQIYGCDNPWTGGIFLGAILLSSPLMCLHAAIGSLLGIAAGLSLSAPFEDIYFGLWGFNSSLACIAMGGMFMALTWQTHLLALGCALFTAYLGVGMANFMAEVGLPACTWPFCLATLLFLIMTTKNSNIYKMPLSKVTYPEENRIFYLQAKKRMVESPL
# [2] = molecular target: T2, rat UT-A1 (Rattus norvegicus, UniProt Q62668); test: UT-A1-mediated urea flux across stably transfected MDCK cell layers; format: cell-based; conditions: 10 μM forskolin; 0.7 mM phloretin
# T2 construct: expressed in transfected cells
# T2 sequence (Q62668 1-929): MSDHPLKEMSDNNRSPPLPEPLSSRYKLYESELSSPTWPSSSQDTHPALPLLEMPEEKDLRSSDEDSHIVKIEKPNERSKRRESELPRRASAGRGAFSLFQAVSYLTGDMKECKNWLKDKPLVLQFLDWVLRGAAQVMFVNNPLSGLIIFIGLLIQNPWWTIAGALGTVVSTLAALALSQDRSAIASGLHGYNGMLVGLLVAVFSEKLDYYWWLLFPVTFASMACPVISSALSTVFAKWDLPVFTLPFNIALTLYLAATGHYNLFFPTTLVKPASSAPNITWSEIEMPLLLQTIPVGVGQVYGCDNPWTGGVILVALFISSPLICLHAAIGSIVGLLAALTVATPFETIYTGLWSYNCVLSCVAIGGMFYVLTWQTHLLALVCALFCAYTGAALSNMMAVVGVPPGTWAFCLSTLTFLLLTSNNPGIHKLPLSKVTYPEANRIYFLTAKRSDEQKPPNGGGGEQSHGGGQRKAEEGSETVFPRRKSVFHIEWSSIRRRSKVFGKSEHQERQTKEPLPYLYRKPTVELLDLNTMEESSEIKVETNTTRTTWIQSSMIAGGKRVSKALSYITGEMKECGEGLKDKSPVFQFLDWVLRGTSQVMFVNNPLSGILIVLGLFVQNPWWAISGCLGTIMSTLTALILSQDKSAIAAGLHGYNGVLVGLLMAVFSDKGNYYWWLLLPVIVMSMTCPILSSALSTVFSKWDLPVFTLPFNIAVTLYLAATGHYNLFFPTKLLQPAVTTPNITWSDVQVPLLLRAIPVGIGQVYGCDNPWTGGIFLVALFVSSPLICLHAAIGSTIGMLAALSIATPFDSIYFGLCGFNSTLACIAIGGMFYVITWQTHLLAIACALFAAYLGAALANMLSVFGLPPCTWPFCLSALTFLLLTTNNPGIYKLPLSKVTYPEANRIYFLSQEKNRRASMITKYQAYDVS
# Method: Concentration-inhibition studies were performed to study the effect of the active mouse UT-B inhibitors on urea transport by UT-A. The amino acid sequences of UT-B and UT-A urea transporter isoforms share significant similarity. The cells used in these studies were MDCK cells that expressed rat UT-A1. MDCK-UT-A1-expressing cells were grown on collagen-coated porous filters until they were electrically tight, at which point 15 mM urea was introduced into buffer bathing the basolateral cell surface. […]
# UT-A1-facilitated urea flux in the basolateral-to-apical direction across unstimulated and forskolin-stimulated MDCK-UT-A1 cell layers was measured in response to a 15-mM urea gradient. […] Five μL samples of apical fluid were collected at specified times during incubation at 37° C., and urea concentration was determined using a commercial kit based on chromogenic urea complexation at 520-nm wavelength (Quantichrom™ Urea Assay Kit, BioAssay Systems, Hayward, Calif.). […] Aforsk, and Aphlor were averaged absorbance values (at 520 nm) for cultures treated with forskolin and forskolin+phloretin, respectively, and Atest were values from cultures treated with forskolin+ test compound.
# [3] = tested on: RBCs from wild-type mice; test: Osmotic water permeability by stopped-flow light scattering, RBCs from wild-type mice; format: cell-based, mouse
# Method: RBC urea and water permeabilities were assayed by stopped-flow light scattering using a Hi-Tech Sf-51 instrument (Wiltshire, UK). For measurement of urea permeability, dilutions of whole blood (human or mouse; see Example 1) in PBS (hematocrit: approximately 0.5%) were incubated with test compounds for 5 min and then subjected to a 250-mM inwardly directed gradient of urea. After an initial osmotic shrinking phase, the kinetics of increasing cell volume caused by urea influx were measured as the time-course of 90° scattered light intensity at 530 nm, with increasing cell volume resulting in reduced scattered light intensity. As a positive control, 0.7 mM phloretin was added to the RBC suspension prior to stopped-flow experiments. Measurements of water permeability were carried out similarly, with sucrose (cell-impermeant) used instead of urea to establish a 250-mM osmotic gradient. As a positive control, HgCl2 (0.3 mM) was added to the RBC suspension prior to stopped-flow measurements. Osmotic water permeability coefficients (Pf) were computed from light scattering data as described (van Hoek et al., J. Biol. Chem. 267:18267-69 (1992)).
# This example describes chemical knock-out of UT-B by UT-B inhibitors in RBCs and the effect on UT-B-facilitated water transport. […] Osmotic water permeability was measured by stopped-flow light scattering in RBCs from wild-type and AQP1-null mice as shown in FIG. 8A. […] AQP1-null RBCs had greater than 5-fold reduced Pf compared to wild-type RBCs.
# [4] = tested on: urea transporter (UT); conditions: previously available UT inhibitors; cited from earlier work
smiles,measurement,setting,value
"O=C(CCc1ccc(O)cc1)c1c(O)cc(O)cc1O [phloretin, reference compound]",acetamide concentration at fifty percent lysis,[1],approximately 1.1 M
same,effect on UT-A1-facilitated urea transport,[2],inhibited
same,effect on water transport,[3],little effect
same,change in Pf,[3]; 0.7 mM,small but significant reduction
same,concentration exhibiting activity as UT inhibitor,[4],> 0.5 mM

# Reference: patent US9316633B2, “Methods for identifying inhibitors of solute transporters” (The Regents of the University of California, priority 2006, dated 2016)
